Measured values as given in ChEMBL document CHEMBL1130447, “Two-ring DNA minor-groove binders consisting of readily available, di-substituted benzene derivatives” (Bioorg Med Chem Lett, 1997).

Experiments:
Assay type in all cases: nucleic-acid assay
Nucleic Acid [1] = experiment: The compound was tested for its binding affinity to Poly (dA-dT) by using ethidium displacement assay
Nucleic Acid [2] = experiment: The compound was tested for its binding affinity to T4 ethidium displacement assay
Nucleic Acid [3] = experiment: The compound was tested for its binding affinity to Poly (dG-dC) by using ethidium displacement assay
Nucleic Acid [4] = experiment: The compound was tested for its binding affinity to calf thymus DNA by using ethidium displacement assay; conditions: Bos taurus

SMILES | C50 (Nucleic Acid [1]) [µM] | C50 (Nucleic Acid [2]) [µM] | C50 (Nucleic Acid [3]) [µM] | C50 (Nucleic Acid [4]) [µM]
CN(C)CCCNC(=O)c1ccc(C(=O)Nc2cccc(NC(=O)CCCN(C)C)c2)cc1 | 1.9 | 27.1 | 142 | 31.9
C[n+]1ccc(Nc2ccc(NC(=O)c3ccc(Nc4cc[n+](C)c5ccccc45)cc3)cc2)cc1 | 0.17 |  | 2.8 | 
CN1CCN(c2ccc3[nH]c(-c4ccc5[nH]c(-c6ccc(O)cc6)nc5c4)nc3c2)CC1 | 0.2 |  | 1.4 | 

Now from value to compound:

C50 (Nucleic Acid [1]) [µM] | C50 (Nucleic Acid [2]) [µM] | C50 (Nucleic Acid [3]) [µM] | C50 (Nucleic Acid [4]) [µM] | SMILES
4.2 | 28.6 | 222 | 43.5 | CN(C)CCCNC(=O)Nc1cccc(NC(=O)c2ccc(C(=O)NCCCN(C)C)cc2)c1
0.9 |  | 5.7 |  | N=C(N)c1ccc(/N=N/Nc2ccc(C(=N)N)cc2)cc1
28.4 | 35.6 | 55.6 | 47.3 | CN(C)CCCNC(=O)c1cccc(C(=O)Nc2ccc(NC(=O)CCCN(C)C)cc2)c1
23.5 | 35.2 | 77.3 | 44.8 | CN(C)CCCNC(=O)Nc1ccc(NC(=O)c2ccc(C(=O)NCCCN(C)C)cc2)cc1
